{"source": "PubChem BioAssay AID1963958", "about": "(Molecular Pharmacology Branch, DTP, NCI, 2024)", "test_system": "MDA-MB-231 multicell spheroids, viability", "assay": "Anticancer human tumor MDA-MB-231 cell line growth inhibition [PI3K];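 as to all read-outs here: spheroids exposed to agents for seven days before reading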;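 as to viability, T/C: percent of vehicle control luminescence with DMSO treated spheroids as 100%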", "conditions": "for IC50: curve of first compound; for viability, T/C: stronger effect = lower value", "procedure,_shortened": "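Combination activity was assessed by viability in multicellular tumor spheroids carrying HUVEC and MSC components. Agents were tested with PI3K inhibitors from a Cmax-based top dose (or 10 microM) downward in half-log increments.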", "data": [{"smiles": "CC1(C)CCC(Nc2ncc(C(F)(F)F)c(-c3c[nH]c4c(P(C)(C)=O)c(C#N)ccc34)n2)CN1", "note": "(configuration not stated) + Cc1nc(NC(=O)N2CCCC2C(N)=O)sc1-c1ccnc(C(C)(C)C(F)(F)F)c1", "values": [{"measurement": "IC50", "setting": "second compound 0.0316 µM", "value": 31.6, "unit": "nM"}, {"measurement": "IC50", "setting": "second compound 0.1 µM", "value": 31.6, "unit": "nM"}, {"measurement": "IC50", "setting": "second compound 0.316 µM", "value": "< 31.6", "unit": "nM"}, {"measurement": "IC50", "setting": "second compound 1 µM", "value": "< 31.6", "unit": "nM"}, {"measurement": "IC50", "setting": "second compound 3.16 µM", "value": "< 31.6", "unit": "nM"}, {"measurement": "IC50", "setting": "second compound 10 µM", "value": "< 31.6", "unit": "nM"}, {"measurement": "viability, T/C", "setting": "second compound 0.0316 µM, first compound 0.0316 µM", "value": 47.6, "unit": "%"}, {"measurement": "viability, T/C", "setting": "second compound 0.0316 µM, first compound 0.1 µM", "value": 42.8, "unit": "%"}, {"measurement": "viability, T/C", "setting": "second compound 0.0316 µM, first compound 0.316 µM", "value": 47.6, "unit": "%"}, {"measurement": "viability, T/C", "setting": "second compound 0.0316 µM, first compound 1 µM", "value": 51.2, "unit": "%"}, {"measurement": "viability, T/C", "setting": "second compound 0.0316 µM, first compound 3.16 µM", "value": 54.6, "unit": "%"}, {"measurement": "viability, T/C", "setting": "second compound 0.0316 µM, first compound 10 µM", "value": 4.85, "unit": "%"}, {"measurement": "viability, T/C", "setting": "second compound 0.1 µM, first compound 0.0316 µM", "value": 48.5, "unit": "%"}, {"measurement": "viability, T/C", "setting": "second compound 0.1 µM, first compound 0.1 µM", "value": 44.1, "unit": "%"}, {"measurement": "viability, T/C", "setting": "second compound 0.1 µM, first compound 0.316 µM", "value": 45.2, "unit": "%"}, {"measurement": "viability, T/C", "setting": "second compound 0.1 µM, first compound 1 µM", "value": 49.9, "unit": "%"}, {"measurement": "viability, T/C", "setting": "second compound 0.1 µM, first compound 3.16 µM", "value": 52.5, "unit": "%"}, {"measurement": "viability, T/C", "setting": "second compound 0.1 µM, first compound 10 µM", "value": 5.6, "unit": "%"}, {"measurement": "viability, T/C", "setting": "second compound 0.316 µM, first compound 0.0316 µM", "value": 44.5, "unit": "%"}, {"measurement": "viability, T/C", "setting": "second compound 0.316 µM, first compound 0.1 µM", "value": 42.7, "unit": "%"}, {"measurement": "viability, T/C", "setting": "second compound 0.316 µM, first compound 0.316 µM", "value": 44.7, "unit": "%"}, {"measurement": "viability, T/C", "setting": "second compound 0.316 µM, first compound 1 µM", "value": 45.5, "unit": "%"}, {"measurement": "viability, T/C", "setting": "second compound 0.316 µM, first compound 3.16 µM", "value": 47.5, "unit": "%"}, {"measurement": "viability, T/C", "setting": "second compound 0.316 µM, first compound 10 µM", "value": 3.95, "unit": "%"}, {"measurement": "viability, T/C", "setting": "second compound 1 µM, first compound 0.0316 µM", "value": 43.4, "unit": "%"}, {"measurement": "viability, T/C", "setting": "second compound 1 µM, first compound 0.1 µM", "value": 43.8, "unit": "%"}, {"measurement": "viability, T/C", "setting": "second compound 1 µM, first compound 0.316 µM", "value": 43.9, "unit": "%"}, {"measurement": "viability, T/C", "setting": "second compound 1 µM, first compound 1 µM", "value": 45.4, "unit": "%"}, {"measurement": "viability, T/C", "setting": "second compound 1 µM, first compound 3.16 µM", "value": 44.8, "unit": "%"}, {"measurement": "viability, T/C", "setting": "second compound 1 µM, first compound 10 µM", "value": 3.6, "unit": "%"}, {"measurement": "viability, T/C", "setting": "second compound 3.16 µM, first compound 0.0316 µM", "value": 43.5, "unit": "%"}, {"measurement": "viability, T/C", "setting": "second compound 3.16 µM, first compound 0.1 µM", "value": 44, "unit": "%"}, {"measurement": "viability, T/C", "setting": "second compound 3.16 µM, first compound 0.316 µM", "value": 42.5, "unit": "%"}, {"measurement": "viability, T/C", "setting": "second compound 3.16 µM, first compound 1 µM", "value": 42.6, "unit": "%"}, {"measurement": "viability, T/C", "setting": "second compound 3.16 µM, first compound 3.16 µM", "value": 40.4, "unit": "%"}, {"measurement": "viability, T/C", "setting": "second compound 3.16 µM, first compound 10 µM", "value": 4.49, "unit": "%"}, {"measurement": "viability, T/C", "setting": "second compound 10 µM, first compound 0.0316 µM", "value": 41.7, "unit": "%"}, {"measurement": "viability, T/C", "setting": "second compound 10 µM, first compound 0.1 µM", "value": 43.4, "unit": "%"}, {"measurement": "viability, T/C", "setting": "second compound 10 µM, first compound 0.316 µM", "value": 40.5, "unit": "%"}, {"measurement": "viability, T/C", "setting": "second compound 10 µM, first compound 1 µM", "value": 40.3, "unit": "%"}, {"measurement": "viability, T/C", "setting": "second compound 10 µM, first compound 3.16 µM", "value": 38.1, "unit": "%"}, {"measurement": "viability, T/C", "setting": "second compound 10 µM, first compound 10 µM", "value": 3.35, "unit": "%"}]}]}
